According to US20240381872A1, “SUBSTITUTED 2,3-DIHYDRO[1,3]THIAZOLO[4,5-B]PYRIDINES, SALTS THEREOF AND THEIR USE AS HERBICIDALLY ACTIVE SUBSTANCES” (BAYER AKTIENGESELLSCHAFT, priority 2021, published 2024):

How the values were obtained:
Type in all cases: in vivo
[1] = system: Kochia scoparia (KCHSC); experiment: Herbicidal post-emergence action, section B (Table B4); conditions: visual rating about 3 weeks after treatment vs untreated controls; for pest or weed control at 320 g/ha / post-emergence activity against KCHSC in %: application rate 320 g/ha
Procedure, shortened: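 Post-emergence greenhouse test: weeds sown in sandy loam, treated at one-leaf stage 2–3 weeks after sowing with WP or EC formulations sprayed as aqueous suspension/emulsion plus 0.5% additive at 600 L/ha. Activity rated visually versus untreated controls after about 3 weeks (100% = plants dead, 0% = like control).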

[2] = system: Viola tricolor (VIOTR); experiment: Herbicidal pre-emergence action, section C (Table C9); conditions: visual grading after ca. 3 weeks; for pest or weed control at 320 g/ha / pest or weed control at 80 g/ha: Viola tricolor, pre-emergence, 504 h, read-out: pre-emergence activity against VIOTR in %
Description: (§1) Seeds of mono- and dicotyledonous weed plants and crop plants were sown, in plastic or organic planting pots, in sandy loam and covered with soil. The compounds according to the invention, formulated in the form of wettable powders (WP) or as emulsifiable concentrates (EC), were applied to the surface of the covering soil as aqueous suspension or emulsion, with the addition of 0.5% of an additive, at an application rate of 600 l of water/ha (converted). Following treatment, the pots were placed in a greenhouse and kept under optimum growth conditions for the test plants. The visual grading of the damage to the test plants was carried out after ca. 3 weeks in comparison to untreated controls (herbicidal effect in percent (%): 100% effect=plants have died off, 0% effect=as control plants).

[3] = system: Triticum aestivum (TRZAS); experiment: Pre-emergence effects on crop plants, section D (Table D2); conditions: visual grading after ca. 3 weeks
Procedure, shortened: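 Seeds sown in sandy loam and covered with soil; WP or EC formulations applied to the covering soil surface as aqueous suspension/emulsion with 0.5% additive at 600 l water/ha, at 320 g/ha or below. Greenhouse growth; visual damage scored after ca. 3 weeks versus untreated controls (0% = as control, 100% = dead).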

[4] = system: Alopecurus myosuroides (ALOMY); experiment: Herbicidal post-emergence action, section B (Table B2); conditions: rated visually about 3 weeks after treatment vs untreated controls, 100% = plants have died, 0% = like control plants
Procedure: (§2) Seeds of mono- and dicotyledonous weed plants were placed in plastic pots in sandy loam soil (doubly sown with in each case one species of mono- or dicotyledonous weed plants per pot), covered with soil and cultivated in a greenhouse under controlled growth conditions. 2 to 3 weeks after sowing, the test plants were treated at the one-leaf stage. The compounds of the invention, formulated in the form of wettable powders (WP) or as emulsion concentrates (EC), were applied onto the green parts of the plants as aqueous suspension or emulsion with addition of 0.5% additive at a water application rate of 600 liters per hectare (converted). After the test plants had been kept in the greenhouse under optimum growth conditions for about 3 weeks, the activity of the preparations was rated visually in comparison to untreated controls. For example, 100% activity=the plants have died, 0% activity=like control plants.

[5] = system: Matricaria inodora (MATIN); experiment: Herbicidal post-emergence action, section B (Table B6); conditions: visual rating about 3 weeks after treatment vs untreated controls; for pest or weed control at 1280 g/ha: Tripleurospermum inodorum, post-emergence, 504 h, read-out: post-emergence activity against MATIN in %
Procedure: as §2

[6] = system: Abutilon theophrasti (ABUTH); experiment: Herbicidal pre-emergence action, section C (Table C1); conditions: visual grading after ca. 3 weeks vs untreated controls
Description: as §1

[7] = system: Abutilon theophrasti (ABUTH); experiment: Herbicidal post-emergence action, section E (Table E1); conditions: assessed visually after ca. 3 weeks; for pest or weed control at 320 g/ha: Abutilon theophrasti, post-emergence, 504 h, read-out: post-emergence activity against ABUTH in %
Description: (§3) Seeds of mono- and dicotyledonous weed plants and crop plants were sown, in plastic or organic planting pots, in sandy loam, covered with soil and grown in a greenhouse under controlled growth conditions. 2 to 3 weeks after sowing, the test plants were sprayed in the single-leaf stage. The compounds according to the invention, formulated in form of wettable powders (WP) or as emulsifiable concentrates (EC), were sprayed onto the green plant parts as aqueous suspension or emulsion, with the addition of 0.5% of an additive, at an application rate of 600 l of water/ha (converted). The test plants were placed in the greenhouse for ca. 3 weeks under optimum growth conditions, and then the effect of the preparations was assessed visually in comparison with untreated controls (herbicidal effect in percent (%): 100% effect=plants have died off, 0% effect=as control plants).

[8] = system: Setaria viridis (SETVI); experiment: Herbicidal post-emergence action, section E (Table E8); conditions: visual assessment ca. 3 weeks after spraying; for pest or weed control at 320 g/ha / post-emergence activity against SETVI in %: application rate 320 g/ha
Description: as §3

[9] = system: Zea mays (ZEAMX); experiment: Post-emergence effects on crop plants, section F (Table F1); conditions: for post-emergence activity against ZEAMX in %: crop plant damage
Procedure, shortened: (§4)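 Percent damage was rated by eye roughly 3 weeks after treatment against untreated plants, where 0% = as control and 100% = died off. Spraying used WP or EC formulations plus 0.5% additive at 600 l water/ha, with rates of 320 g/ha or less. Plants were at the single-leaf stage, sown 2-3 weeks earlier in sandy loam under greenhouse conditions.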

[10] = system: Brassica napus (BRSNW); experiment: Post-emergence effects on crop plants, section F (Table F5); conditions: for post-emergence activity against BRSNW in %: crop plant damage
Procedure, shortened: as §4

[11] = system: Kochia scoparia (KCHSC); experiment: Herbicidal post-emergence action, section E (Table E11); conditions: visual assessment ca. 3 weeks after spraying
Description: as §3

[12] = Bassia scoparia, post-emergence, 504 h, read-out: post-emergence activity against KCHSC in %
[13] = Setaria viridis, 504 h, read-out: post-emergence activity against SETVI in %
[14] = Zea mays, 504 h, application rate 320 g/ha, read-out: post-emergence activity against ZEAMX in %

SMILES: CCS(=O)(=O)N1C[S+]([O-])c2cc(C)c(-c3ccccc3C)nc21 (stereo not drawn) [Example I-074]
- pest or weed control at 320 g/ha [1, 12]: 90%
- pest or weed control at 320 g/ha ([2]; application rate 320 g/ha): 90%
- pre-emergence activity against TRZAS in % (crop plant damage) ([3]; application rate 80 g/ha): 0%

SMILES: Cc1cc2c(nc1-c1ccccc1F)NCS2 [Example I-007, 5-(2-fluorophenyl)-6-methyl-2,3-dihydro[1,3]thiazolo[4,5-b]pyridine]
- pest or weed control at 320 g/ha ([4]; Alopecurus myosuroides, post-emergence, 504 h, application rate 320 g/ha, read-out: post-emergence activity against ALOMY): 90%
- pest or weed control at 1280 g/ha ([1]; Bassia scoparia, post-emergence, 504 h, application rate 1280 g/ha, read-out: post-emergence activity against KCHSC in %): 90%
- pest or weed control at 1280 g/ha ([5]; application rate 1280 g/ha): 90%
- pest or weed control at 320 g/ha ([6]; Abutilon theophrasti, pre-emergence, 504 h, application rate 320 g/ha, read-out: pre-emergence activity against ABUTH in %): 80%
- pest or weed control at 320 g/ha ([7]; application rate 320 g/ha): 80%
- pest or weed control at 80 g/ha ([8]; Setaria viridis, 504 h, application rate 80 g/ha, read-out: post-emergence activity against SETVI in %): 90%
- percent crop plant damage (phytotoxicity) on Zea mays, post-emergence at 80 g/ha ([9]; Zea mays, 504 h, application rate 80 g/ha, read-out: post-emergence activity against ZEAMX in %): 0%

SMILES: CC(C)C(=O)N1C[S+]([O-])c2cc(Br)c(-c3ccccc3)nc21 (stereo not drawn) [Example I-067]
- pest or weed control at 320 g/ha ([2]; application rate 320 g/ha): 100%
- pre-emergence activity against TRZAS in % (crop plant damage) ([3]; application rate 80 g/ha): 10%
- pest or weed control at 320 g/ha [8, 13]: 80%
- percent crop plant damage (phytotoxicity) on Zea mays, post-emergence at 320 g/ha [9, 14]: 0%
- crop plant damage (phytotoxicity) in % at 80 g/ha ([10]; Brassica napus, 504 h, application rate 80 g/ha, read-out: post-emergence activity against BRSNW in %): 0%

SMILES: CCc1ccccc1-c1nc2c(cc1C)[S+]([O-])CN2 (stereo not drawn) [Example I-047]
- pest or weed control at 320 g/ha [1, 12]: 90%
- pest or weed control at 80 g/ha ([2]; application rate 80 g/ha): 90%
- pre-emergence activity against TRZAS in % (crop plant damage) ([3]; application rate 320 g/ha): 10%
- percent crop plant damage (phytotoxicity) on Zea mays, post-emergence at 320 g/ha [9, 14]: 0%
- crop plant damage (phytotoxicity) in % at 320 g/ha ([10]; Brassica napus, 504 h, application rate 320 g/ha, read-out: post-emergence activity against BRSNW in %): 20%

SMILES: Cc1cc2c(nc1-c1ccccc1F)N(S(=O)(=O)Cc1ccc(F)cc1)CS2 [Example I-122]
- post-emergence activity against ALOMY ([4]; application rate 1280 g/ha): 90%
- post-emergence activity against KCHSC in % [1]: 90%
- post-emergence activity against MATIN in % ([5]; application rate 1280 g/ha): 90%
- pre-emergence activity against VIOTR in % ([2]; application rate 320 g/ha): 80%
- pre-emergence activity against TRZAS in % (crop plant damage) ([3]; application rate 80 g/ha): 10%
- post-emergence activity against ABUTH in % ([7]; application rate 320 g/ha): 80%
- post-emergence activity against SETVI in % [8]: 80%
- post-emergence activity against KCHSC in % ([11]; application rate 80 g/ha): 80%
- post-emergence activity against ZEAMX in % ([9]; application rate 320 g/ha): 0%
- post-emergence activity against BRSNW in % ([10]; application rate 80 g/ha): 0%

SMILES: Cc1cc2c(nc1-c1ccccc1)N(C(=O)C1(C)CC(Cl)=NO1)CS2 (stereo not drawn) [Example I-088]
- post-emergence activity against KCHSC in % [1]: 90%
- post-emergence activity against MATIN in % ([5]; application rate 1280 g/ha): 90%
- pre-emergence activity against ABUTH in % ([6]; application rate 320 g/ha): 90%
- pre-emergence activity against VIOTR in % ([2]; application rate 320 g/ha): 90%
- pre-emergence activity against TRZAS in % (crop plant damage) ([3]; application rate 80 g/ha): 0%
- post-emergence activity against ABUTH in % ([7]; application rate 320 g/ha): 90%
- post-emergence activity against KCHSC in % ([11]; application rate 320 g/ha): 80%
- post-emergence activity against ZEAMX in % ([9]; application rate 320 g/ha): 0%
- post-emergence activity against BRSNW in % ([10]; application rate 80 g/ha): 0%

SMILES: Cc1cc2c(nc1-c1cccc(C)c1F)NCS2 [Example I-113]
- post-emergence activity against ALOMY ([4]; application rate 1280 g/ha): 90%
- post-emergence activity against KCHSC in % [1]: 90%
- post-emergence activity against MATIN in % ([5]; application rate 1280 g/ha): 90%
- pre-emergence activity against TRZAS in % (crop plant damage) ([3]; application rate 320 g/ha): 10%
- post-emergence activity against ZEAMX in % ([9]; application rate 320 g/ha): 0%
- post-emergence activity against BRSNW in % ([10]; application rate 320 g/ha): 20%

SMILES: CCS(=O)(=O)N1CSc2cc(C)c(-c3ccccc3F)nc21 [Example I-060, 3-(ethylsulfonyl)-5-(2-fluorophenyl)-6-methyl-2,3-dihydro[1,3]thiazolo[4,5-b]pyridine]
- pest or weed control at 1280 g/ha ([4]; Alopecurus myosuroides, post-emergence, 504 h, application rate 1280 g/ha, read-out: post-emergence activity against ALOMY): 90%
- pest or weed control at 320 g/ha [1, 12]: 90%
- pest or weed control at 1280 g/ha ([5]; application rate 1280 g/ha): 90%
- pest or weed control at 80 g/ha ([6]; Abutilon theophrasti, pre-emergence, 504 h, application rate 80 g/ha, read-out: pre-emergence activity against ABUTH in %): 90%
- pest or weed control at 80 g/ha ([2]; application rate 80 g/ha): 90%
- pest or weed control at 320 g/ha ([7]; application rate 320 g/ha): 80%
- pest or weed control at 320 g/ha [8, 13]: 90%
- percent crop plant damage (phytotoxicity) on Zea mays, post-emergence at 320 g/ha [9, 14]: 0%

SMILES: COC(=O)CCC(=O)N1CSc2cc(Cl)c(-c3ccccc3F)nc21 [Example I-003]
- post-emergence activity against ALOMY ([4]; application rate 320 g/ha): 100%
- post-emergence activity against KCHSC in % [1]: 90%
- pre-emergence activity against TRZAS in % (crop plant damage) ([3]; application rate 80 g/ha): 20%
- post-emergence activity against SETVI in % [8]: 80%
- post-emergence activity against ZEAMX in % ([9]; application rate 320 g/ha): 0%

SMILES: Cc1cc2c(nc1-c1ccccc1F)N(C(=O)C1(C)CC(Cl)=NO1)CS2 (stereo not drawn) [Example I-083]
- post-emergence activity against ALOMY ([4]; application rate 1280 g/ha): 90%
- post-emergence activity against KCHSC in % [1]: 90%
- post-emergence activity against MATIN in % ([5]; application rate 320 g/ha): 90%
- pre-emergence activity against ABUTH in % ([6]; application rate 320 g/ha): 90%
- pre-emergence activity against VIOTR in % ([2]; application rate 80 g/ha): 90%
- post-emergence activity against ABUTH in % ([7]; application rate 80 g/ha): 90%
- post-emergence activity against SETVI in % [8]: 80%
- post-emergence activity against ZEAMX in % ([9]; application rate 80 g/ha): 10%
